Laboratory results: PubChem BioAssay (NCI)
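1) Cells in 96-well plates. 2) Compound, 48 h, 5 concentrations. 3) Linear interpolation between surrounding doses. 4) Unreached endpoint = highest concentration. TGI marks complete inhibition of growth.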

Key:
Assay in all cases: growth of human tumour cells (NCI), 48 h
[1] = system: NCI-H460 lung
[2] = system: EKVX NSCLC
[3] = system: HS 578T breast
[4] = system: COLO 205 colon
[5] = system: HCT-15 colon
[6] = system: HCC-2998 colon
[7] = system: SF-268 CNS
[8] = system: SK-MEL-5 melanoma
[9] = system: DU-145 prostate
[10] = system: BT-549 breast
[11] = system: HOP-92 NSCLC
[12] = system: RPMI-8226 leukemia
[13] = system: RXF 393 renal
[14] = system: OVCAR-4 ovarian
[15] = system: K-562 leukemia
[16] = system: M14 melanoma
[17] = system: OVCAR-3 ovarian
[18] = system: SF-295 CNS
[19] = system: HL-60(TB) leukemia

Compound | TGI [1] [µM] | TGI [2] [µM] | TGI [3] [µM] | TGI [4] [µM] | TGI [5] [µM] | TGI [6] [µM] | TGI [7] [µM] | TGI [8] [µM] | TGI [9] [µM] | TGI [10] [µM] | TGI [11] [µM] | TGI [12] [µM] | TGI [13] [µM] | TGI [14] [µM] | TGI [15] [µM] | TGI [16] [µM] | TGI [17] [µM] | TGI [18] [µM] | TGI [19] [µM]
CC(CC[C@@H](O)C(C)(C)O)C1[C@@H](O)CC2(C)C3CC(O)C4C(C)(C)[C@@H](OC5OC(CO)C(O)C(O)C5O)CC[C@@]45C[C@@]35CC[C@]12C (stereo not given in full) | > 10 | > 10 | > 10 | > 10 | > 10 | > 10 | > 10 | > 10 | > 10 | > 10 | > 10 | > 10 | > 10 | > 10 | > 10 | > 10 | > 10 | > 10 | > 10
c1cncc(C2(c3cc4ccccc4[nH]3)COCO2)c1 (stereo not given) | > 100 | > 100 | > 100 | > 100 | > 100 | > 100 | > 100 | > 100 | > 100 | > 100 | > 100 | > 100 | > 100 | > 100 | > 100 | > 100 | > 100 | > 100 | > 100
COc1ccc(CCCCl)c(C2=NCCc3cc(OC)c(OC)cc32)c1 | > 100 | > 100 | > 100 | 68.9 | > 100 | > 100 | > 100 | 59.4 | > 100 | > 100 | > 100 | 28.5 | > 100 | > 100 | > 100 | > 100 | > 100 | > 100 | > 100
Cc1ccc([N+](=O)[O-])cc1S(=O)(=O)Nc1ccc(C2=NOC(c3ccco3)C2)cc1 (stereo not given) | 37.2 | 61.9 | > 100 | 80.9 | 32 | 31.9 | 97.1 | 27.7 | 39.3 | 39.2 | 88.9 | 96.8 | 23.3 | 32.7 | 59.3 | 32.8 | 30.7 | 46.5 | 54.7
CN1CCc2c3n(c4cc(Br)ccc24)[C@H](O)CCCC31 (stereo not given in full) | 2.97 | > 10 | 4.57 | 3.24 | > 5.77 | 3.16 | > 10 | > 8.72 | > 10 | > 10 | > 9.12 | 5.36 | 7.74 | > 7.44 | 1.88 | 3.24 | > 10 | 3.53 | 4.15
CC[C@@]1(O)C(=O)OCc2c1cc1n(c2=O)Cc2c-1nc1ccccc1c2/C=N\NC(=O)C(N)CO (stereo not given in full) | 25.3 | > 100 | > 100 | > 100 | > 100 | > 100 | 7.36 | 2.55 | > 100 | > 100 | 50.5 | > 73.2 | 7.73 | > 100 | > 100 | 7.51 | > 100 | > 100 | > 21
C[C@]12CC[C@@H]3c4ccc(O)cc4CC[C@H]3[C@@H]1CC[C@@H]2OP(=O)(O)O | > 100 | > 100 | > 100 | > 100 | > 100 | > 100 | > 100 | > 100 | > 100 | > 100 | > 100 | > 100 | > 100 | > 100 | > 100 | > 100 | > 100 | > 100 | > 100
C[C@@]1(O)C[C@@H](N2C(=O)O[C@@H](c3ccccc3)[C@H]2c2ccccc2)[C@@H]1COCc1ccccc1 | 68.1 | 70.3 | 62.9 | 36.4 | 84.3 | 58.4 | 48.1 | 27.2 | > 100 | 51.2 | 89 | 68.8 | 80.2 | > 100 | > 100 | 30 | 46.1 | 41.3 | 23.5
COc1ccc(/C=C2\NC(=S)N(/C=C3\C(=O)Oc4ccccc4C3=O)C2=O)cc1OC | > 100 | > 100 | > 100 | > 100 | > 100 | > 100 | > 100 | > 100 | > 100 | > 100 | > 100 | > 100 | > 100 | > 100 | > 100 | > 100 | > 100 | > 100 | > 100
Cn1c(=O)c2c(nc3n(CCCCl)c(=O)ccn23)n(C)c1=O | > 100 | > 100 | > 100 | > 100 | > 100 | > 100 | > 100 | > 100 | > 100 | > 100 | > 100 | > 100 | > 100 | > 100 | > 100 | > 100 | > 100 | > 100 | > 100
